Earlier results in patent US20050153948A1, “Methods and formulations for the treatment of medical conditions related to elevated dihydrotestosterone” (Zomanex, LLC, priority 2003, published 2005).

Experiments:
[1] = aqueous sterol/lecithin formulation, deuterated compounds, humans
prostate cancer = conditions: 5 mg per day, seven-year trial; placebo group 24.4 percent
[2] = target: T1, type II enzyme (5α-reductase) (Homo sapiens, UniProt P31213); conditions: type II 5α-reductase; read-out: K1 for type II enzyme
T1 sequence (P31213 1-254): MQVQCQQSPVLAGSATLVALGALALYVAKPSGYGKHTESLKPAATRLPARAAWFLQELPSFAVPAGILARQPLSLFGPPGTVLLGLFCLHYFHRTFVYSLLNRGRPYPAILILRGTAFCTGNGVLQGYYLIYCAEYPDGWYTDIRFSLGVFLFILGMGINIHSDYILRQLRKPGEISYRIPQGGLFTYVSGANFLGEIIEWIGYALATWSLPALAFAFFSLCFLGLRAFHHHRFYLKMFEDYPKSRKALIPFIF

circulating serum DHT = conditions: two clinical trials
Type I human reductase = target: T2, Type I human reductase (Homo sapiens, UniProt P18405); conditions: Type I human 5α-reductase; read-out: K1 for Type I human reductase
T2 sequence (P18405 1-259): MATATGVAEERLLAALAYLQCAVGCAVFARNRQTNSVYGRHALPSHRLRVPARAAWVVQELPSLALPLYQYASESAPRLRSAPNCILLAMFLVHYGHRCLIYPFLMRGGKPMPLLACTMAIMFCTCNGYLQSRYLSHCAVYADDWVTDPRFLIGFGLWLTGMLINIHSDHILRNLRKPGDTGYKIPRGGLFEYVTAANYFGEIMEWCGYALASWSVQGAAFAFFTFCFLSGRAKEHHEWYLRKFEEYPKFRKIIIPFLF

[3] = system: prostate (benign prostatic hyperplasia); conditions: long-term use; reduced from about 10 percent

| Compound | absorption relative to reduced derivatives sitostanol and campestanol [1] | cumulative incidence of cancer (prostate cancer) [%] | Ki [2] [nM] | reduction in circulating serum DHT (circulating serum DHT) [%] | Ki (Type I human reductase) [nM] | need for surgical intervention for BPH [3] [%] |
| --- | --- | --- | --- | --- | --- | --- |
| CC(C)[C@H](C)CC[C@@H](C)[C@H]1CC[C@H]2[C@@H]3CC=C4C[C@@H](O)CC[C@]4(C)[C@H]3CC[C@]12C [campesterol] | about ten | – | – | – | – | – |
| CC(C)(C)NC(=O)[C@H]1CC[C@H]2[C@@H]3CC[C@H]4NC(=O)C=C[C@]4(C)[C@H]3CC[C@]12C [finasteride] | – | 18.4 | 12 | 65 | 325 | 5 |
| CC[C@H](CC[C@@H](C)[C@H]1CC[C@H]2[C@@H]3CC=C4C[C@@H](O)CC[C@]4(C)[C@H]3CC[C@]12C)C(C)C [sitosterol] | about ten | – | – | – | – | – |
